Laboratory results from publication PMC5075052, “Modulation of the Substitution Pattern of 5-Aryl-2-Aminoimidazoles Allows Fine-Tuning of Their Antibiofilm Activity Spectrum and Toxicity” (Antimicrobial Agents and Chemotherapy, 2016).

Key:
[1] = test system: C. albicans SC5314 + S. aureus SH1000; assay: Mixed C. albicans-S. aureus biofilm, selective plating CFU; format: cell-based, Candida albicans + Staphylococcus aureus; conditions: 37°C
Method: Overnight cultures of C. albicans SC5314 (YPD, 30°C) and S. aureus SH1000 (LB, 37°C) were washed with PBS, after which they were diluted in RPMI 1640 medium to obtain cell suspensions of 10^6 cells/ml for fungal cells and 10^8 cells/ml for bacteria. Equal volumes of these cell suspensions were mixed, and 100 μl of this mixed cell suspension together with compound was added to the wells of a microtiter plate in triplicate. Concentrations of 25 μM (0.0625% DMSO or ethanol) and 100 μM (0.25% DMSO or ethanol) were tested. The plates were incubated at 37°C for 90 min. After incubation, the wells were washed twice with PBS, and 200 μl of fresh RPMI 1640 medium with or without compounds was added in triplicate to the wells. After 24 h of incubation at 37°C, the medium was removed and the biofilm was washed with PBS. Next, the cells were resuspended in 100 μl of PBS by scraping them off, sonicated (1 min, 45 kHz; USC300-T; VWR, Radnor, PA, USA), and vigorously pipetted up and down. Finally, dilution series were made, and quantification of the S. aureus SH1000 and C. albicans SC5314 populations was performed using selective plating on TSA plates containing 25 mg/liter amphotericin B and YPD plates containing 100 μg/ml tetracycline, respectively. The percentage of C. albicans SC5314 and S. aureus SH1000 cells relative to the number of cells after DMSO or ethanol control treatment was determined.

[2] = test system: eukaryotic tumor cell lines, bone cells, and the nematode Caenorhabditis elegans; set-up: method as in PMID 25325155; conditions: C. elegans; cited from earlier work
[3] = test system: C. albicans SC5314 + E. coli MG1655; assay: Mixed C. albicans-E. coli biofilm, selective plating CFU; format: cell-based, Candida albicans + Escherichia coli; conditions: 37°C
Method: Overnight cultures of C. albicans SC5314 (YPD) and E. coli MG1655 (TSB) were washed three times with PBS, after which they were diluted in RPMI 1640 medium to OD600s of 1 and 0.01, respectively. Equal volumes of these cell suspensions were mixed, and 100 μl of this mixed cell suspension together with compound was added to the wells of a microtiter plate in triplicate. Concentrations of 25 μM (0.0625% DMSO or ethanol) and 100 μM (0.25% DMSO or ethanol) were tested. After 24 h of incubation at 37°C, the medium was removed and the biofilm was washed with PBS. Next, the cells were resuspended in 100 μl of PBS by scraping them off, sonicated (1 min, 45 kHz; USC300-T; VWR, Radnor, PA, USA), and vigorously pipetted up and down. Finally, dilution series were made, and quantification of the E. coli MG1655 and C. albicans SC5314 populations was performed using selective plating on tryptic soy agar (TSA) plates containing 25 mg/liter amphotericin B and YPD plates containing 100 μg/ml tetracycline, respectively. The percentage of C. albicans SC5314 and E. coli MG1655 cells relative to the number of cells after DMSO or ethanol control treatment was determined.

[4] = test system: bone marrow-derived mesenchymal stem cells (MSC); assay: Mammalian cell viability assay, trypan blue staining; format: cell-based; conditions: 12.5 μM, 6 days of exposure
Method: The viability of two human primary cell types, namely, osteoblasts (OB) and bone marrow-derived mesenchymal stem cells (MSC), was tested according to the ISO 10993-5 standard, as previously described ([76]). Briefly, cells were seeded in 96-well tissue culture test plates (TPP; Trasadingen, Switzerland) at 5 × 10^3 cells/cm^2 in cell culture medium (advanced Dulbecco modified Eagle's medium [DMEM]) supplemented with 10% serum, 1× GlutaMAX, and 0.05 mg/ml gentamicin and were allowed to attach overnight. On the next day, the cells were exposed to (i) cell culture medium and medium with the corresponding control (0.5% ethanol or DMSO; negative controls), (ii) medium with 0.05% phenol (cytotoxic control), and (iii) medium with compounds (12.5 μM) and incubated for 2 h, 48 h, and 6 days (8 repeats for each condition). At each time point, the numbers of viable and dead cells were determined directly by trypan blue staining and indirectly by measuring metabolic activity with 3-(4,5-dimethylthiazol-2-yl)-2,5-diphenyltetrazolium bromide (MTT) staining.
The medium was removed from the wells, 1/3 trypan blue in DMEM was added to the cells, and the cells were incubated for 3 min, after which the trypan blue was removed and DMEM was added to the wells. In each of four wells, two microscopy fields were counted for viable (transparent) and dead (blue) cells.

[5] = test system: bone marrow-derived mesenchymal stem cells (MSC); assay: Osteogenic differentiation, calcium and DNA assay; format: cell-based, human; conditions: 12.5 μM; for calcium deposition of MSC (normalized by DNA): osteogenic medium, versus solvent control
Method: (§1) The effects of the substances on the osteogenic differentiation potential were assessed as previously described ([76]). Only the substances that allowed survival of the cells for more than 3 weeks, which is the time needed for mature osteogenic differentiation, were tested. Briefly, osteoblasts and bone marrow-derived mesenchymal stem cells were cultured in a positive solvent control (osteogenic medium with 0.5% DMSO or ethanol background), a negative control (medium without osteogenic supplements), and treated samples (osteogenic medium, 0.5% DMSO or ethanol background, and 12.5 μM test compound) with four repeats per condition. The cells in the mesenchymal stem cell and osteoblast cultures were harvested after 3 or 5 weeks, respectively, for the calcium and DNA assay.
(§2) The calcium deposition of osteoblasts and mesenchymal stem cells was measured with the calcium CPC LiquiColor test (Stanbio Laboratory, Boerne, TX) as previously described ([76]). Briefly, cell cultures were extracted with 5% trichloroacetic acid (500 μl per sample), o-cresolphthalein complex was added, and the calcium content was determined spectrophotometrically at 550 nm. The DNA content was determined as previously described ([76]). DNA values were used to normalize the calcium content. Four wells per condition were examined, and two samples from each well were taken for each assay.

[6] = test system: osteoblasts (OB); assay: Osteogenic differentiation, calcium and DNA assay; format: cell-based, human; conditions: 12.5 μM; for calcium deposition of OB (normalized by DNA): osteogenic medium, versus solvent control
Method: as §1, §2

[7] = 25 μM compound, relative to solvent control

## CCCCCCCCn1c(-c2ccc(Cl)cc2)cnc1N [Compound 2]
[1]; 25 μM compound
  % CFU survival, C. albicans: 183.8%
  % CFU survival, S. aureus: 87.7%
[1]; 100 μM compound
  % CFU survival, C. albicans: 0.9%
  % CFU survival, S. aureus: 0.2%
[2]
  toxicity (previously reported): strong toxicity
[3]; 25 μM compound
  % CFU survival, E. coli: 158.6%
[3]; [7]
  % CFU survival, C. albicans: 104.9%
[3]; 100 μM compound
  % CFU survival, C. albicans: 0.0%
  % CFU survival, E. coli: 0.1%

## CC(C)CNc1ncc(-c2ccc(Cl)cc2)[nH]1 [Compound 3]
[1]; 25 μM compound
  % CFU survival, C. albicans: 165.7%
  % CFU survival, S. aureus: 124.6%
[1]; 100 μM compound
  % CFU survival, C. albicans: 141.3%
  % CFU survival, S. aureus: 51.8%
[3]; 25 μM compound
  % CFU survival, E. coli: 138.5%
[3]; [7]
  % CFU survival, C. albicans: 143.4%
[3]; 100 μM compound
  % CFU survival, C. albicans: 59.6%
  % CFU survival, E. coli: 63.0%

## Clc1ccc(-c2cnc(NC3CCCC3)[nH]2)cc1 [Compound 5]
[1]; 25 μM compound
  % CFU survival, C. albicans: 232.4%
  % CFU survival, S. aureus: 75.4%
[1]; 100 μM compound
  % CFU survival, C. albicans: 120.6%
  % CFU survival, S. aureus: 74.5%
[3]; 25 μM compound
  % CFU survival, E. coli: 100.6%
[3]; [7]
  % CFU survival, C. albicans: 100.8%
[3]; 100 μM compound
  % CFU survival, C. albicans: 38.3%
  % CFU survival, E. coli: 105.6%

## Brc1ccc(-c2cnc(NCCn3cc(C4CC4)nn3)[nH]2)cc1 [Compound 6]
[2]
  toxicity (previously reported): higher level of toxicity

## CCCCCCCCn1c(-c2ccccc2)cnc1NCC(C)C [Compound 8a]
[4]
  proliferation of MSC (trypan blue): slightly reduced

## CCCCCCCCn1c(-c2ccc(Cl)cc2)cnc1NCC(C)C [Compound 8b]
[5]
  survival of MSC allowed: more than 3 weeks
  calcium deposition of MSC (normalized by DNA): induced
[6]
  survival of OB allowed: more than 3 weeks
  calcium deposition of OB (normalized by DNA): induced

## CCCCCCCCn1c(-c2ccc(Br)cc2)cnc1NCC(C)C [Compound 8c]
[5]
  survival of MSC allowed: more than 3 weeks
  calcium deposition of MSC (normalized by DNA): induced
[6]
  survival of OB allowed: more than 3 weeks
  calcium deposition of OB (normalized by DNA): induced

## CCCCCCCCn1c(-c2ccc(Cl)c(Cl)c2)cnc1NCC(C)C [Compound 8d]
[4]
  proliferation of MSC (trypan blue): increase in proliferation
[5]
  survival of MSC allowed: more than 3 weeks
  calcium deposition of MSC (normalized by DNA): none of the compounds at 12.5 μM negatively affected the calcium deposition
[6]
  survival of OB allowed: more than 3 weeks
  calcium deposition of OB (normalized by DNA): none of the compounds at 12.5 μM negatively affected the calcium deposition

## CCCCCCCCn1c(-c2ccccc2)cnc1NC1CCCC1 [Compound 8e]
[4]
  proliferation of MSC (trypan blue): slightly reduced

## CCCCCCCCn1c(-c2ccc(Cl)cc2)cnc1NC1CCCC1 [Compound 8f]
[4]
  proliferation of MSC (trypan blue): slightly reduced

## CCCCCCCCn1c(-c2ccc(Br)cc2)cnc1NC1CCCC1 [Compound 8g]
[4]
  proliferation of MSC (trypan blue): slightly reduced
[5]
  survival of MSC allowed: more than 3 weeks
  calcium deposition of MSC (normalized by DNA): induced
[6]
  survival of OB allowed: more than 3 weeks
  calcium deposition of OB (normalized by DNA): induced

## CCCCCCCCn1c(-c2ccc(Cl)c(Cl)c2)cnc1NC1CCCC1 [Compound 8h]
[5]
  survival of MSC allowed: more than 3 weeks
  calcium deposition of MSC (normalized by DNA): induced
[6]
  survival of OB allowed: more than 3 weeks
  calcium deposition of OB (normalized by DNA): induced
